Results from patent publication US20160074399A1, “Salts of an Epidermal Growth Factor Receptor Kinase Inhibitor” (Clovis Oncology, Inc., priority 2013, published 2016).

Test: Competitive slurry experiments Form I vs. Form III
Assay type: physicochemical
Details: ca. 3 days
Description: Competitive slurry experiments were set up in acetone, isopropanol, acetone:water (80:20) and isopropyl acetate at both room temperature (ca. 22° C.) and 60° C. Approximately 200 mg of each of Forms I and III material was placed into a vial and 4 mL of the appropriate solvent system was added to produce a slurry. For each experiment, the slurries were allowed to stir for ca. 3 days. Analysis by XRPD was then conducted to determine the form of the resultant solid. Competitive slurry experiments of Form I vs. Form III were carried out in 4 solvent systems and resulting solids were analysed by XRPD analysis (FIG. 82 and FIG. 83).

Measured: Result (form of resultant solid)

Br.C=CC(=O)Nc1cccc(Nc2nc(Nc3ccc(N4CCN(C(C)=O)CC4)cc3OC)ncc2C(F)(F)F)c1 [I and III]
Form I: Acetone, 60° C. | Acetone, RT (ca. 22° C.) | Isopropanol, 60° C. | Isopropanol, RT (ca. 22° C.) | Isopropyl acetate, 60° C. | Isopropyl acetate, RT (ca. 22° C.)
Form VIII: Acetone:water (80:20), 60° C. | Acetone:water (80:20), RT (ca. 22° C.)
